Laboratory results taken from patent publication US12077503B2, “Substituted cyclic amides and their use as herbicides” (FMC CORPORATION, priority 2015, dated 2024).

Legend:
Type in all cases: in vivo
Kochia (Kochia scoparia) [1] = experiment: Test A preemergence; conditions: for Kochia plant response rating (0 to 100 scale, 0 is no effect, 100 is complete control): visual injury approx. 10 d
Outline: (§1)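 In a loam soil and sand blend, planted seeds got a preemergence directed soil spray, and young plants at the one- to two-leaf stage, 2–10 cm high, got a postemergence application; ~10 d greenhouse hold; injury rated visually, 0 = none, 100 = complete control.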

[2] = test system: barnyardgrass (Echinochloa crus-galli); experiment: Test A preemergence; conditions: for Barnyardgrass plant response rating (0 to 100 scale, 0 is no effect, 100 is complete control): visual injury approx. 10 d
Outline: as §1

[3] = test system: giant foxtail (Setaria faberii); experiment: Test A preemergence; conditions: for Foxtail, Giant plant response rating (0 to 100 scale, 0 is no effect, 100 is complete control): visual injury approx. 10 d
Outline: as §1

[4] = test system: pigweed (Amaranthus retroflexus); experiment: Test A preemergence; conditions: for Pigweed plant response rating (0 to 100 scale, 0 is no effect, 100 is complete control): visual injury approx. 10 d
[5] = test system: ragweed (common ragweed, Ambrosia elatior); experiment: Test A preemergence; conditions: for Ragweed plant response rating (0 to 100 scale, 0 is no effect, 100 is complete control): visual injury approx. 10 d
Outline: as §1

[6] = test system: ryegrass, Italian (Italian ryegrass, Lolium multiflorum); experiment: Test A preemergence; conditions: for Ryegrass, Italian plant response rating (0 to 100 scale, 0 is no effect, 100 is complete control): visual injury approx. 10 d
Outline: as §1

[7] = test system: Galium (catchweed bedstraw, Galium aparine); experiment: Test A postemergence; conditions: for Galium plant response rating: visual injury rating on 0 to 100 scale (0 no effect, 100 complete control)
Outline: as §1

Kochia (Kochia scoparia) [8] = experiment: Test A postemergence; conditions: for Kochia plant response rating: visual injury rating on 0 to 100 scale (0 no effect, 100 complete control)
Outline: as §1

[9] = test system: barnyardgrass (Echinochloa crus-galli); experiment: Test A postemergence; conditions: for Barnyardgrass plant response rating: visual injury rating on 0 to 100 scale (0 no effect, 100 complete control)
Outline: as §1

[10] = test system: blackgrass (Alopecurus myosuroides); experiment: Test A postemergence; conditions: for Blackgrass plant response rating: visual injury rating on 0 to 100 scale (0 no effect, 100 complete control)
Outline: as §1

corn (Zea mays) = experiment: Test A postemergence; conditions: for Corn plant response rating: visual injury rating on 0 to 100 scale (0 no effect, 100 complete control)
Outline: as §1

[11] = test system: giant foxtail (Setaria faberii); experiment: Test A postemergence; conditions: for Foxtail, Giant plant response rating: visual injury rating on 0 to 100 scale (0 no effect, 100 complete control)
Outline: as §1

[12] = test system: pigweed (Amaranthus retroflexus); experiment: Test A postemergence; conditions: for Pigweed plant response rating: visual injury rating on 0 to 100 scale (0 no effect, 100 complete control)
Outline: as §1

[13] = test system: ragweed (common ragweed, Ambrosia elatior); experiment: Test A postemergence; conditions: for Ragweed plant response rating: visual injury rating on 0 to 100 scale (0 no effect, 100 complete control)
Outline: as §1

[14] = test system: ryegrass, Italian (Italian ryegrass, Lolium multiflorum); experiment: Test A postemergence; conditions: for Ryegrass, Italian plant response rating: visual injury rating on 0 to 100 scale (0 no effect, 100 complete control)
Outline: as §1

[15] = test system: wheat (Triticum aestivum); experiment: Test A postemergence; conditions: for Wheat plant response rating: visual injury rating on 0 to 100 scale (0 no effect, 100 complete control)
Outline: as §1

[16] = test system: barnyardgrass (Echinochloa crus-galli); experiment: Test B flooded paddy test; conditions: Flood, 250 g ai/ha; 0 to 100 scale where 0 is no effect and 100 is complete control; 13 to 15 d
Outline: (§2)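 Plants at 2-leaf stage flooded to 3 cm above soil, with compounds applied directly to paddy water and that depth maintained. Plants kept in greenhouse 13–15 d. Visual rating versus controls on a 0 (no effect) to 100 (complete control) scale.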

[17] = test system: ducksalad (Heteranthera limosa); experiment: Test B flooded paddy test; conditions: Flood, 250 g ai/ha; 0 to 100 scale where 0 is no effect and 100 is complete control; 13 to 15 d
Outline: as §2

rice (Oryra sativa) = experiment: Test B flooded paddy test; conditions: Flood, 250 g ai/ha; 0 to 100 scale where 0 is no effect and 100 is complete control; 13 to 15 d
Outline: as §2

[18] = test system: sedge, umbrella (small-flower umbrella sedge, Cyperus difformis); experiment: Test B flooded paddy test; conditions: Flood, 250 g ai/ha; 0 to 100 scale where 0 is no effect and 100 is complete control; 13 to 15 d
Outline: as §2

[19] = 125 g ai/ha, preemergence, 0 to 100 scale (0 no effect, 100 complete control)
[20] = 125 g ai/ha, postemergence, approx. 10 d
[21] = 500 g ai/ha, postemergence, 0 to 100 scale, 0 no effect, 100 complete control
[22] = 125 g ai/ha, Preemergence, visual injury after approximately 10 d, 0 to 100 scale where 0 is no effect and 100 is complete control
[23] = Postemergence, 500 g ai/ha, 0 to 100 scale where 0 is no effect and 100 is complete control
[24] = 500 g ai/ha, preemergence, 0 to 100 scale, 0 = no effect, 100 = complete control
[25] = 125 g ai/ha, preemergence, visual rating after approx. 10 d, 0 to 100 scale where 0 is no effect and 100 is complete control
[26] = 125 g ai/ha, postemergence, visual injury after approximately 10 d, 0 to 100 scale (0 no effect, 100 complete control)
[27] = 500 g ai/ha, postemergence, visual injury, 0 to 100 scale (0 no effect, 100 complete control), approx. 10 d
[28] = 125 g ai/ha, postemergence, visual rating after approx. 10 d, 0 to 100 scale (0 no effect, 100 complete control)

Cc1cc(C2CNC(=O)C2C(=O)Nc2cccc(F)c2F)ccc1F (stereo not drawn) [Compound 400]
Plant response rating, Kochia (Kochia (Kochia scoparia) [1]; [19]): 60
Kochia plant response rating (0 to 100 scale, 0 is no effect, 100 is complete control) (Kochia (Kochia scoparia) [1]; Preemergence, 500 g ai/ha): 80
Plant response rating, Barnyardgrass [2, 19]: 90
Barnyardgrass plant response rating (0 to 100 scale, 0 is no effect, 100 is complete control) ([2]; Preemergence, 500 g ai/ha): 100
Plant response rating, Foxtail, Giant [3, 19]: 90
Foxtail, Giant plant response rating (0 to 100 scale, 0 is no effect, 100 is complete control) ([3]; Preemergence, 500 g ai/ha): 100
Plant response rating, Pigweed [4, 19]: 60
Pigweed plant response rating (0 to 100 scale, 0 is no effect, 100 is complete control) ([4]; Preemergence, 500 g ai/ha): 60
Plant response rating, Ragweed [5, 19]: 70
Ragweed plant response rating (0 to 100 scale, 0 is no effect, 100 is complete control) ([5]; Preemergence, 500 g ai/ha): 90
Plant response rating, Ryegrass, Italian [6, 19]: 30
Ryegrass, Italian plant response rating (0 to 100 scale, 0 is no effect, 100 is complete control) ([6]; Preemergence, 500 g ai/ha): 40
Galium plant response rating [7, 20]: 40
Plant response rating, Galium [7, 21]: 60
Kochia plant response rating (Kochia (Kochia scoparia) [8]; [20]): 60
Plant response rating, Kochia (Kochia (Kochia scoparia) [8]; [21]): 70
Barnyardgrass plant response rating [9, 20]: 90
Plant response rating, Barnyardgrass [9, 21]: 90
Blackgrass plant response rating [10, 20]: 60
Plant response rating, Blackgrass [10, 21]: 60
Corn plant response rating (corn (Zea mays); [20]): 20
Plant response rating, Corn (corn (Zea mays); [21]): 80
Foxtail, Giant plant response rating [11, 20]: 50
Plant response rating, Foxtail, Giant [11, 21]: 70
Pigweed plant response rating [12, 20]: 30
Plant response rating, Pigweed [12, 21]: 50
Ragweed plant response rating [13, 20]: 40
Plant response rating, Ragweed [13, 21]: 50
Ryegrass, Italian plant response rating [14, 20]: 20
Plant response rating, Ryegrass, Italian [14, 21]: 90
Wheat plant response rating [15, 20]: 30
Plant response rating, Wheat [15, 21]: 70
Plant response rating, Barnyardgrass [16]: 65
Plant response rating, Ducksalad [17]: 100
Plant response rating, Rice (rice (Oryra sativa)): 20
Plant response rating, Sedge, Umbrella [18]: 0

O=C1NCC(c2cccc(F)c2F)C1C(=O)Nc1ccccc1F (stereo not drawn) [Compound 494]
Plant response rating, Kochia (Kochia (Kochia scoparia) [1]; [22]): 0
Kochia plant response rating (0 to 100 scale, 0 is no effect, 100 is complete control) (Kochia (Kochia scoparia) [1]; Preemergence, 500 g ai/ha): 0
Plant response rating, Barnyardgrass [2, 22]: 70
Barnyardgrass plant response rating (0 to 100 scale, 0 is no effect, 100 is complete control) ([2]; Preemergence, 500 g ai/ha): 90
Plant response rating, Foxtail, Giant [3, 22]: 80
Foxtail, Giant plant response rating (0 to 100 scale, 0 is no effect, 100 is complete control) ([3]; Preemergence, 500 g ai/ha): 90
Plant response rating, Pigweed [4, 22]: 0
Pigweed plant response rating (0 to 100 scale, 0 is no effect, 100 is complete control) ([4]; Preemergence, 500 g ai/ha): 0
Plant response rating, Ragweed [5, 22]: 0
Ragweed plant response rating (0 to 100 scale, 0 is no effect, 100 is complete control) ([5]; Preemergence, 500 g ai/ha): 0
Plant response rating, Ryegrass, Italian [6, 22]: 0
Ryegrass, Italian plant response rating (0 to 100 scale, 0 is no effect, 100 is complete control) ([6]; Preemergence, 500 g ai/ha): 0
Galium plant response rating [7, 20]: 0
Plant response rating, Galium [7, 23]: 0
Kochia plant response rating (Kochia (Kochia scoparia) [8]; [20]): 0
Plant response rating, Kochia (Kochia (Kochia scoparia) [8]; [23]): 0
Barnyardgrass plant response rating [9, 20]: 30
Plant response rating, Barnyardgrass [9, 23]: 80
Blackgrass plant response rating [10, 20]: 0
Plant response rating, Blackgrass [10, 23]: 0
Corn plant response rating (corn (Zea mays); [20]): 0
Plant response rating, Corn (corn (Zea mays); [23]): 0
Foxtail, Giant plant response rating [11, 20]: 20
Plant response rating, Foxtail, Giant [11, 23]: 60
Pigweed plant response rating [12, 20]: 0
Plant response rating, Pigweed [12, 23]: 0
Ragweed plant response rating [13, 20]: 0
Plant response rating, Ragweed [13, 23]: 0
Ryegrass, Italian plant response rating [14, 20]: 0
Plant response rating, Ryegrass, Italian [14, 23]: 0
Wheat plant response rating [15, 20]: 0
Plant response rating, Wheat [15, 23]: 0
Plant response rating, Barnyardgrass [16]: 20
Plant response rating, Ducksalad [17]: 30
Plant response rating, Rice (rice (Oryra sativa)): 0
Plant response rating, Sedge, Umbrella [18]: 0

O=C1NCC(c2cccc(Br)c2)C1C(=O)Nc1ccc(F)cc1F (racemic) [Compound 687]
Plant response rating, Kochia (Kochia (Kochia scoparia) [1]; [22]): 0
Plant response rating, Kochia (Kochia (Kochia scoparia) [1]; [24]): 40
Plant response rating, Barnyardgrass [2, 22]: 90
Plant response rating, Barnyardgrass [2, 24]: 90
Plant response rating, Foxtail, Giant [3, 22]: 90
Plant response rating, Foxtail, Giant [3, 24]: 90
Plant response rating, Pigweed [4, 25]: 0
Plant response rating, Pigweed [4, 24]: 30
Plant response rating, Ragweed [5, 25]: 0
Plant response rating, Ragweed [5, 24]: 0
Plant response rating, Ryegrass, Italian [6, 25]: 0
Plant response rating, Ryegrass, Italian [6, 24]: 20
Plant response rating, Galium [7, 26]: 0
Plant response rating, Galium [7, 27]: 20
Plant response rating, Kochia (Kochia (Kochia scoparia) [8]; [26]): 0
Plant response rating, Kochia (Kochia (Kochia scoparia) [8]; [27]): 30
Plant response rating, Barnyardgrass [9, 28]: 90
Plant response rating, Barnyardgrass [9, 27]: 90
Plant response rating, Blackgrass [10, 28]: 30
Plant response rating, Blackgrass [10, 27]: 40
Plant response rating, Corn (corn (Zea mays); [26]): 0
Plant response rating, Corn (corn (Zea mays); [27]): 70
Plant response rating, Foxtail, Giant [11, 26]: 80
Plant response rating, Foxtail, Giant [11, 27]: 90
Plant response rating, Pigweed [12, 26]: 0
Plant response rating, Pigweed [12, 27]: 20
Plant response rating, Ragweed [13, 26]: 30
Plant response rating, Ragweed [13, 27]: 30
Plant response rating, Ryegrass, Italian [14, 26]: 20
Plant response rating, Ryegrass, Italian [14, 27]: 40
Plant response rating, Wheat [15, 26]: 0
Plant response rating, Wheat [15, 27]: 60
Plant response rating, Barnyardgrass [16]: 35
Plant response rating, Ducksalad [17]: 80
Plant response rating, Rice (rice (Oryra sativa)): 0
Plant response rating, Sedge, Umbrella [18]: 0
